Measurements: patent US6737383B1, “Herbicidal oxadiazolidines” (priority 1999, dated 2004)

Legend:
bedstraw = experiment: Test B pre/postemergence bedstraw; type: in vivo, Galium aparine
Outline: (§1)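 Herbicidal effect was estimated by eye on a ten-point control scale after plants spent twelve to sixteen days in a greenhouse following soil or foliar treatment. Foliar sprays targeted plants at one to four leaves; all doses were formulated in a non-phytotoxic solvent with surfactant.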

blackgrass = experiment: Test B pre/postemergence blackgrass; type: in vivo, Alopecurus myosuroides
Outline: as §1

surinam grass = experiment: Test B pre/postemergence surinam grass; type: in vivo, Brachiaria decumbens
Outline: as §1

cocklebur = experiment: Test B pre/postemergence cocklebur; type: in vivo, Xanthium strumarium
Outline: as §1

corn = experiment: Test B pre/postemergence corn; type: in vivo, Zea mays
Outline: as §1

crabgrass = experiment: Test B pre/postemergence crabgrass; type: in vivo, Digitaria sanguinalis
Outline: as §1

giant foxtail = experiment: Test B pre/postemergence giant foxtail; type: in vivo, Setaria faberii
Outline: as §1

morningglory = experiment: Test B pre/postemergence morningglory; type: in vivo, Ipomoea hederacea
Outline: as §1

pigweed = experiment: Test B pre/postemergence pigweed; type: in vivo, Amaranthus retroflexus
Outline: as §1

rape = experiment: Test B pre/postemergence rape; type: in vivo, Brassica napus
Outline: as §1

soybean = experiment: Test B pre/postemergence soybean; type: in vivo, Glycine max
Outline: as §1

sugar beet = experiment: Test B pre/postemergence sugar beet; type: in vivo, Beta vulgaris
Outline: as §1

velvetleaf = experiment: Test B pre/postemergence velvetleaf; type: in vivo, Abutilon theophrasti
Outline: as §1

wheat = experiment: Test B pre/postemergence wheat; type: in vivo, Triticum aestivum
Outline: as §1

wild oat = experiment: Test B pre/postemergence wild oat; type: in vivo, Avena fatua
Outline: as §1

purple nutsedge = experiment: Test B pre/postemergence purple nutsedge; type: in vivo, Cyperus rotundus
Outline: as §1

[1] = Preemergence, Rate 62 g/ha, scale of 0 to 10 where 0 is no effect and 10 is complete control
[2] = Preemergence, Rate 125 g/ha, scale of 0 to 10 where 0 is no effect and 10 is complete control
[3] = Preemergence, Rate 250 g/ha, scale 0 (no effect) to 10 (complete control)
[4] = Preemergence, Rate 500 g/ha, scale of 0 to 10 where 0 is no effect and 10 is complete control
[5] = Rate 500 g/ha, Postemergence, scale 0 to 10, 0 is no effect, 10 is complete control
[6] = Postemergence, Rate 62 g/ha, scale 0 to 10, 0 is no effect, 10 is complete control
[7] = Postemergence, Rate 125 g/ha, scale of 0 to 10 where 0 is no effect and 10 is complete control
[8] = Rate 250 g/ha, Postemergence, scale 0 to 10, 0 is no effect, 10 is complete control

## CC(C)N(C(=O)n1oc(=O)n(CCCCCl)c1=O)c1ccc(F)cc1 [Compound 712]
bedstraw; [1]
  Bedstraw plant response rating: 0
bedstraw; [2]
  Plant response rating, Bedstraw: 0
bedstraw; [3]
  Bedstraw plant response rating: 2
bedstraw; [4]
  Plant response rating, Bedstraw: 5
bedstraw; [5]
  Bedstraw plant response rating: 8
blackgrass; [6]
  Plant response rating, Blackgrass: 0
blackgrass; [7]
  Blackgrass plant response rating: 0
blackgrass; [1]
  Blackgrass plant response rating: 3
blackgrass; [2]
  Plant response rating, Blackgrass: 6
blackgrass; [3]
  Blackgrass plant response rating: 8
blackgrass; [4]
  Plant response rating, Blackgrass: 9
blackgrass; [8]
  Blackgrass plant response rating: 5
blackgrass; [5]
  Blackgrass plant response rating: 6
Surinam grass; [6]
  Plant response rating, B. signalgrass: 0
Surinam grass; [7]
  B. signalgrass plant response rating: 0
Surinam grass; [1]
  B. signalgrass plant response rating: 3
Surinam grass; [2]
  Plant response rating, B. signalgrass: 5
Surinam grass; [3]
  B. signalgrass plant response rating: 8
Surinam grass; [4]
  Plant response rating, B. signalgrass: 8
Surinam grass; [8]
  B. signalgrass plant response rating: 4
Surinam grass; [5]
  B. signalgrass plant response rating: 8
cocklebur; [6]
  Plant response rating, Cocklebur: 0
cocklebur; [7]
  Cocklebur plant response rating: 0
cocklebur; [1]
  Cocklebur plant response rating: 0
cocklebur; [2]
  Plant response rating, Cocklebur: 0
cocklebur; [3]
  Cocklebur plant response rating: 0
cocklebur; [4]
  Plant response rating, Cocklebur: 0
cocklebur; [8]
  Cocklebur plant response rating: 3
cocklebur; [5]
  Cocklebur plant response rating: 3
corn; [6]
  Plant response rating, Corn: 0
corn; [7]
  Corn plant response rating: 0
corn; [1]
  Corn plant response rating: 0
corn; [2]
  Plant response rating, Corn: 0
corn; [3]
  Corn plant response rating: 0
corn; [8]
  Corn plant response rating: 0
corn; [5]
  Corn plant response rating: 0
crabgrass; [6]
  Plant response rating, Crabgrass: 1
crabgrass; [7]
  Crabgrass plant response rating: 4
crabgrass; [1]
  Crabgrass plant response rating: 8
crabgrass; [2]
  Plant response rating, Crabgrass: 9
crabgrass; [3]
  Crabgrass plant response rating: 10
crabgrass; [8]
  Crabgrass plant response rating: 9
crabgrass; [5]
  Crabgrass plant response rating: 9
Giant foxtail; [6]
  Plant response rating, Giant foxtail: 3
Giant foxtail; [7]
  Giant foxtail plant response rating: 8
Giant foxtail; [1]
  Giant foxtail plant response rating: 10
Giant foxtail; [2]
  Plant response rating, Giant foxtail: 10
Giant foxtail; [3]
  Giant foxtail plant response rating: 10
Giant foxtail; [8]
  Giant foxtail plant response rating: 8
Giant foxtail; [5]
  Giant foxtail plant response rating: 9
morningglory; [6]
  Plant response rating, Morningglory: 3
morningglory; [7]
  Morningglory plant response rating: 4
morningglory; [1]
  Morningglory plant response rating: 0
morningglory; [2]
  Plant response rating, Morningglory: 0
morningglory; [3]
  Morningglory plant response rating: 0
morningglory; [8]
  Morningglory plant response rating: 10
morningglory; [5]
  Morningglory plant response rating: 10
pigweed; [6]
  Plant response rating, Redroot pigweed: 3
pigweed; [1]
  Redroot pigweed plant response rating: 6
pigweed; [2]
  Plant response rating, Redroot pigweed: 8
pigweed; [3]
  Redroot pigweed plant response rating: 8
pigweed; [8]
  Redroot pigweed plant response rating: 6
pigweed; [5]
  Redroot pigweed plant response rating: 8
rape; [6]
  Plant response rating, Rape: 2
rape; [7]
  Rape plant response rating: 3
rape; [1]
  Rape plant response rating: 0
rape; [2]
  Plant response rating, Rape: 2
rape; [3]
  Rape plant response rating: 7
rape; [8]
  Rape plant response rating: 4
rape; [5]
  Rape plant response rating: 4
soybean; [6]
  Plant response rating, Soybean: 2
soybean; [7]
  Soybean plant response rating: 5
soybean; [1]
  Soybean plant response rating: 0
soybean; [2]
  Plant response rating, Soybean: 0
soybean; [3]
  Soybean plant response rating: 0
soybean; [8]
  Soybean plant response rating: 5
soybean; [5]
  Soybean plant response rating: 5
Sugar beet; [6]
  Plant response rating, Sugarbeets: 1
Sugar beet; [7]
  Sugarbeets plant response rating: 3
Sugar beet; [1]
  Sugarbeets plant response rating: 0
Sugar beet; [2]
  Plant response rating, Sugarbeets: 4
Sugar beet; [3]
  Sugarbeets plant response rating: 7
Sugar beet; [5]
  Sugarbeets plant response rating: 6
velvetleaf; [6]
  Plant response rating, Velvetleaf: 0
velvetleaf; [7]
  Velvetleaf plant response rating: 5
velvetleaf; [1]
  Velvetleaf plant response rating: 0
velvetleaf; [2]
  Plant response rating, Velvetleaf: 3
velvetleaf; [3]
  Velvetleaf plant response rating: 3
velvetleaf; [8]
  Velvetleaf plant response rating: 6
velvetleaf; [5]
  Velvetleaf plant response rating: 6
wheat; [6]
  Plant response rating, Wheat: 0
wheat; [7]
  Wheat plant response rating: 0
wheat; [1]
  Wheat plant response rating: 0
wheat; [2]
  Plant response rating, Wheat: 0
wheat; [3]
  Wheat plant response rating: 0
wheat; [8]
  Wheat plant response rating: 0
wheat; [5]
  Wheat plant response rating: 5
Wild oat; [6]
  Plant response rating, Wild oats: 0
Wild oat; [7]
  Wild oats plant response rating: 0
Wild oat; [1]
  Wild oats plant response rating: 0
Wild oat; [2]
  Plant response rating, Wild oats: 3
Wild oat; [3]
  Wild oats plant response rating: 3
Wild oat; [8]
  Wild oats plant response rating: 0
Wild oat; [5]
  Wild oats plant response rating: 3
Purple nutsedge; [6]
  Plant response rating, Nutsedge: 0
Purple nutsedge; [7]
  Nutsedge plant response rating: 0
Purple nutsedge; [1]
  Nutsedge plant response rating: 0
Purple nutsedge; [2]
  Plant response rating, Nutsedge: 0
Purple nutsedge; [3]
  Nutsedge plant response rating: 0
Purple nutsedge; [8]
  Nutsedge plant response rating: 0
Purple nutsedge; [5]
  Nutsedge plant response rating: 0
